Assay results: publication PMC11079064, “Discovery of a brain penetrant small molecule antagonist targeting LPA1 receptors to reduce neuroinflammation and promote remyelination in multiple sclerosis” (Scientific Reports, 2024)
Like-named read-outs stand apart in the source and are kept apart here.

Key:
human LPA1 = molecular target: T1, human LPA1 (Homo sapiens, UniProt Q92633); test: Functional calcium mobilization assay; assay type: cell-based; details: 24 h pre-incubation prior to LPA addition; read-out: Functional LPA1 Ca^+2 mobilization
T1 construct: expressed in transfected cells
Description: Intracellular calcium was monitored with Fluo-4 (Molecular Devices). Dye was made up in HBSS with 0.1% (w/v) BSA and 2.5 mM probenecid. Plates were read using a FlexStation 3 (Molecular Devices, Sunnyvale, CA). Calcium response was generated by the simultaneous addition of the EC80 of LPA.
On the day of assay, media was removed and replaced with dye and 3× fresh compound in HBSS−/− with 0.1% BSA and incubated for 1 h.
30-min assay: Antagonists were added to plates after dye loading was complete at a 3× concentration in HBSS−/− with 0.1% BSA and incubated for 30 min.

[1] = tested on: human cortical slice cultures; test: Human cortical slice culture, CC1+ cells by immunohistochemistry; assay type: cell-based
Description: Human donor brain was received 14 h after death on wet ice. Upon receipt, the brain was immediately placed into-ice cold DPBS without calcium or magnesium. Cortical regions containing gray-white border were isolated then sliced on a McIlwain tissue chopper set at 400 µm thickness. […] Slices were then processed for qPCR or immunohistochemistry.
Immunohistological evaluation of oligodendrocytes in human brain slice culture: After compound treatment, slices were fixed in 4% PFA overnight. Slices were gently lifted from the membrane insert and washed with at least five 15 min washes in DPBS containing 0.5% Triton-X 100 (0.5%-DPBS) followed by overnight incubation in primary antibodies in blocking solution. Antibodies used were CC-1 (mouse, 1:250, Millipore, Temecula, CA), Olig2 (rabbit 1:250 CellMarque). Slices were washed with at least five 15 min washes in 0.5%-DPBS followed by incubation with secondary antibodies (anti-mouse Alexa488; anti-rabbit, Alexa568, and Hoechst counterstain) in 0.5%-DPBS. All secondary antibodies were produced in goat (Invitrogen, Carlsbad, CA, Carlsbad, CA) and used at 1:250. Filters were excised from insert, mounted with Fluoromount (Millipore Sigma, St. Louis) on a microscope slide and coverslipped. 2 images per slice were acquired using a Nikon A1R confocal microscope and NIS-Elements software. Images were thresholded and counted using ImageJ.

rat oligodendrocytes = test: Oligodendrocyte protection assay (TNFα/IFNγ insult); assay type: cell-based; details: TNFα and IFNγ insult
From the text: TNFα and IFNγ are two cytokines that, while not normally expressed in the CNS, are elevated in MS[29]. These cytokines can be secreted by both macrophages and microglia[30],[31]. Receptors for these cytokines (TNFR1, TNFR2, and IFNGR) are expressed in oligodendrocytes. Of note, TNFR1 and 2 have been found on oligodendrocytes bordering MS lesions[23],[32], [33]. Further, although receptor expression for these cytokines on OPCs is unknown, addition of either of these cytokines impact differentiation in isolated OPC cultures[28],[34]. Cultured rat OPCs were differentiated with T3 for 24 h then treated with both TNFα and IFNγ Upon cytokine addition, we observed significant cell death consistent with previous observations (Fig. 6C, left[22],[35]–[37]).
OPC Assay: OPCs were plated in poly-L-lysine (Millipore Sigma, St. Louis, MO) coated 96-well Viewplates™ (Perkin Elmer, Boston, MA) at a seeding density of […] per well. Cells were maintained in media composed of DMEM (Invitrogen, Carlsbad, CA) supplemented with B27 (Invitrogen, Carlsbad, CA), N2 (Invitrogen, Carlsbad, CA), penicillin–streptomycin (Invitrogen, Carlsbad, CA), N-acetylcysteine (Millipore Sigma, St. Louis, MO), forskolin (Millipore Sigma, St. Louis, MO), and 25 ng/ml PDGF-AA (Peprotech, Cranbury, New Jersey) for 24 h at 37°, 5% CO2. Compounds were diluted 10× at a concentration range of 0.001–3 µM. […]

MOG-EAE mouse model = test: MOG-EAE mouse model, g-ratios by electron microscopy; assay type: in vivo
Description: In control, non-EAE mice, 90.9% of the axons were myelinated (g-ratio < 1). In vehicle treated MOG-EAE mice, only 73.4% of axons were myelinated.
Remyelinated axons canonically have thin myelin[41]. As such, we examined axons with g-ratios ≥ 0.8 but less than 1 as a surrogate measure of a remyelinating axon.
To confirm this, g-ratios in the optic nerve were similarly quantified. […] In non-MOG-EAE mice, 86.4% of the axons were myelinated. […] At 0.3 mg/kg, 85.5% were myelinated. When thinly myelinated axons were quantified, 30.2% in the MOG-treated vehicle group were observed, compared to 50.7% in the non-MOG control.
Study termination was the last day that clinical scores were determined for all study animals (Day 24). Since VEP recordings required several days (Days 21–24), oral dosing continued through perfusion, which was performed on Day 24 or Day 25. On Day 24 or 25, and following completion of VEP recordings, mice were deeply anesthetized with isoflurane anesthesia and whole body perfused with EM grade Karnovsky’s fixative (3% glutaraldehyde, 2% paraformaldehyde in 0.1 M phosphate buffer, pH 7.4; part # 15732-10; Electron Microscopy Sciences, Hatfield, PA). Spinal columns and optic nerves were collected and stored in fixative at 4 °C until further processing. After at 3–5 days in fixative, spinal cords were isolated and dissected from the vertebrae. Approximately 2 mm of the most caudal lumbar region was trimmed and segmented and, along with the optic nerves, shipped to Charles River Laboratories (Durham, NC) for processing for and imaging by electron microscopy.
The blocks were polymerized overnight at ~ 85 °C, and semi-thin sections (~ 1 μm, one per tissue) prepared and stained with toluidine blue using standard protocols. Semi-thin images were evaluated, and the most caudal region was identified as the region of focus for thin sections. Thin sections of ~ 100 nm were prepared using standard protocols and the grids were imaged at 1500 × on a JEOL JEM-1400 + transmission electron microscope fitted with an AMT 16 MP digital camera system. The direct magnification used was 1500 × or 4000 × for spinal cord and optic nerve, respectively.
Digital EM images were analyzed using ImageJ (NIH, Bethesda, MD) measure the circumference of the axon and, when present, the myelin sheath, and g-ratios were calculated. For spinal cord analysis, 4 representative images were analyzed per animal and the results pooled, and the percentages calculated from the animal total. For optic nerve analysis, 1 representative image was analyzed per optic nerve and each optic nerve was treated as a separate data point.

T1 sequence (Q92633 whole entry): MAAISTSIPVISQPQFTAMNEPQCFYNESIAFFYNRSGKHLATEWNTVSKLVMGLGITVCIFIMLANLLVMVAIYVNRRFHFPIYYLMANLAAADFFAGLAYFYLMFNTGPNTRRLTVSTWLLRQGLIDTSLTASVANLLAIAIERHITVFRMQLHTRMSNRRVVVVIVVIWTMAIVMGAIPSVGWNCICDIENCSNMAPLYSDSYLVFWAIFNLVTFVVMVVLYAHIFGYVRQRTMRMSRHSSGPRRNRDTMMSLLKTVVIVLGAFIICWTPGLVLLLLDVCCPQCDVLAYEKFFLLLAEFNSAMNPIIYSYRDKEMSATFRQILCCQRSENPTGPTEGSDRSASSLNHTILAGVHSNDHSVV

IC50 (human LPA1): 9.9 nM
EC50 (rat oligodendrocytes; read-out: EC50 of protection of MBP+ oligodendrocytes): 125 nM
Structure (SMILES): COc1ccc(NC(=O)N(c2ccccc2C(C)C)C2CCC(C(=O)O)CC2)c(OC(F)F)n1 (stereo not drawn) [PIPE-791]
CC1+ cells ([1]; 100 nM): significant increase
differentiation by number of CC1+ cells ([1]; 300 nM): significant differentiation
EC50 (rat oligodendrocytes; data not shown, read-out: EC50 of total cellular viability with Alamar blue): 39.6 nM
myelinated axons, optic nerve (MOG-EAE mouse model; 0.3 mg/kg): 85.5%
thinly myelinated axons, optic nerve (MOG-EAE mouse model; 0.3 mg/kg): 44.7%
myelinated axons, optic nerve (MOG-EAE mouse model; 3 mg/kg): 86.1%
thinly myelinated axons, optic nerve (MOG-EAE mouse model; 3 mg/kg): 50.6%
